Experimental findings from patent US10538567B2, “Compounds as peptidic trigonal GLP1/glucagon/GIP receptor agonists” (priority 2016, dated 2020) are described below.

What all share (type): physicochemical
The nature of series [1]: Dynamic light scattering, hydrodynamic radius as surrogate for DLS interaction parameter kD. The conditions noted are these: for Delta Rh [nm] = Rh5 − Rh1: DLS buffer system A pH 4.5; for Rh1 [nm] c = 1 mg/ml / Rh5 [nm] c = 5 mg/ml: hydrodynamic radius, DLS buffer system A pH 4.5, method C, 25° C. An excerpt:
A monochromatic and coherent light beam (laser) is used to illuminate the liquid sample. Dynamic Light Scattering (DLS) measures light scattered from particles (1 nm≤radius≤1 μm) that undergo Brownian motion. This motion is induced by collisions between the particles and solvent molecules that themselves are moving due to their thermal energy. The diffusional motion of the particles results in temporal fluctuations of the scattered light [Pecora, R. Dynamic Light Scattering: Applications of Photon Correlation Spectroscopy, Plenum Press, 1985].
The scattered light intensity fluctuations are recorded and transformed into an autocorrelation function. By fitting the autocorrelation curve to an exponential function, the diffusion coefficient D of the particles in solution can be derived. The diffusion coefficient is then used to calculate the hydrodynamic radius Rh (or apparent Stokes radius) through the Stokes-Einstein equation assuming spherical particles. This calculation is defined in ISO 13321 and ISO 22412 [International Standard ISO13321 Methods for Determination of Particle Size Distribution Part 8: Photon Correlation Spectroscopy, International Organisation for Standardisation (ISO) 1996; International Standard ISO22412 Particle Size Analysis—Dynamic Light Scattering, International Organisation for Standardisation (ISO) 2008].
For every peptide solution, the hydrodynamic radius Rh and the diffusion constant D (related via the Stokes-Einstein equation) were determined as an average over triplicates. Both parameters were determined at different peptide concentrations (e.g., Rh1 and D1: 1 mg/ml and Rh5 and D5: 5 mg/ml) in the same buffer system. The difference of these parameters between low and high peptide concentration is a surrogate for the DLS interaction parameter kD. Rh5<Rh1 or D5>D1 correspond to kD>0 and therefore to repulsive inter-particle interactions that result in improved physical (or colloidal) stability.
DLS buffer system A) 25 mM acetate buffer pH 4.5, 3 mg/mL L-Methionine, 2.7 mg/mL m-cresol, 18 mg/mL Glycerol 85%
DLS Method C: DLS measurements were performed on a DynaPro Plate Reader II (Wyatt Technology, Santa Barbara, Calif., US) and using one of the following black, low volume, and non-treated plates: polystyrene 384 assay plate with clear bottom (Corning, N.Y., US), polystyrene 96 assay plate with clear bottom (Corning, N.Y., US), cyclo olefin polymer (COP) 384 assay plate with clear bottom (Aurora, Mont., US), or polystyrene 384 assay plate with clear bottom (Greiner Bio-One, Germany). The data were processed with the Dynamics software provided by Wyatt Technology. Parameters of the particle size distribution were determined with non-negatively constrained least squares (NNLS) methods using DynaLS algorithms. Measurements were taken at 25° C. with an 830 nm laser light source at an angle of 158°.
The hydrodynamic radius Rh of peptide samples was determined at different peptide concentrations (1 mg/ml and 5 mg/ml) in DLS buffer system A using DLS method C as described in Methods as surrogate for the DLS interaction parameter kD.

Series [2] in a line: Thioflavin T (ThT) assay for physical stability (fibrillation). The conditions noted are these: 3 mg/ml, 100 mM acetate pH 4.5 with m-cresol, 37° C. shaking. From the text: Low physical stability of a peptide solution may lead to amyloid fibril formation, which is observed as well-ordered, thread-like macromolecular structures in the sample, which eventually may lead to gel formation. Thioflavin T (ThT) is widely used to visualize and quantify the presence of misfolded protein aggregates. [Biancalana et al. (2010) Biochimica et Biophysica Acta. 1804 (7): 1405-1412]. […] Enzymol. 309, 274-284]. The time course for fibril formation often follows the characteristic shape of a sigmoidal curve and can be separated into three regions: a lag phase, a fast growth phase, and a plateau phase.
The typical fibril formation process starts with the lag phase in which the amount of partially folded peptide turned into fibrils is not significant enough to be detected. The lag-time corresponds to the time the critical mass of the nucleus is built. Afterwards, a drastic elongation phase follows and fibril concentration increases rapidly.
Investigations were carried out to determine fibrillation tendencies under stress conditions by shaking at 37° C. within Fluoroskan Ascent FL.
For the tests in Fluoroskan Ascent FL, 200 μL sample were placed into a 96 well mictrotiter plate PS, flat bottom, Greiner Fluotrac No. 655076. Plates were sealed with Scotch Tape (Quiagen). Samples were stressed by continuous cycles of 10 s shaking at 960 rpm and 50 s rest period at 37° C. The kinetic was monitored by measuring fluorescence intensity every 20 minutes.
Peptides were diluted in a buffer system to a final concentration of 3 mg/ml. 20 μL of a 10.1 mM ThT solution in H2O were added to 2 mL of peptide solution to receive a final concentration of 100 μM ThT. For each sample eight replicates were tested.
Tht buffer system A) 100 mM Acetate pH 4.5 including m-cresol (100 mM Natriumacetat trihydrat, pH adjustment using 2N CH3COOH, 2.7 mg/mL m-cresol) Tht buffer system B) 100 mM citrate buffer pH 6.0
Lag time in hours in Thioflavin T (ThT) assay of peptide samples was determined in ThT buffer system A as described in Methods.

Series [3] in a line: Chemical stability assessment, UPLC-UV purity loss in buffer system A. The conditions noted are these: 1 mg/ml, 25 mM acetate buffer pH 4.5 with m-cresol. How it is done:
Prior to the chemical stability measurement of a peptide batch, its purity was determined through UPLC/MS. For stability testing the target concentration was 1 mg pure compound/ml. Therefore solutions from solid samples were prepared in a buffer system with a concentration of 1 mg/mL compound based on the previously determined % purity:
Chemical stability buffer system A) 25 mM acetate buffer pH 4.5, 3 mg/mL L-Methionine, 2.7 mg/mL m-cresol, 18 mg/mL Glycerol 85% Chemical stability buffer system B) 25 mM phosphate buffer pH 6.0, 3 mg/mL L-Methionine, 2.7 mg/mL m-cresol, 18 mg/mL Glycerol 85%
Peptide solutions were filtered through […] pore size and filled into aliquots under aseptic conditions. At starting point, UPLC-UV was performed by injection of 2 μl of the undiluted sample.
For chemical stability testing, aliquots were stored for 28 days at 5 and 40° C. After this time course the samples were centrifuged for 15 min at 2500 RCF. Then 2 μl of the undiluted supernatant were analysed with UPLC-UV.
The chemical stability was rated through the relative loss of purity calculated by the equation: [(purity at starting point)−(purity after 28 days at X° C.)]/(purity at starting point)]*100%
The purity is calculated as
[(peak area peptide)/(total peak area)]*100%
Peptide samples were prepared in Chemical stability buffer system A and the stability was assessed as described in Methods.

The structures appear in SMILES notation. Numbered stars: 1 amine (or outer) side, 2 acyl side, 3 side chain; on linkers, the order of the positions; unused ones are H or OH. Square brackets hold non-standard residues; d marks the D form. Side chains are listed from the residue outwards. Peptide text beside a SMILES is read from it. * marks the point of attachment. γGlu = O=C(O)[C@H](CCC(=O)[*:2])N[*:1]; Palmitoyl = CCCCCCCCCCCCCCCC(=O)*; AEEA = NCCOCCOCC(=O)O; Aib = CC(C)(N)C(=O)O

With `CCCCCCCCCCCCCCCC(=O)NCCOCCOCC(=O)N[C@@H](CCC(=O)N[C@@H](CCC(=O)NCCCC[C@H](NC(=O)[C@H](CC(C)C)NC(=O)[C@H](CCCCN)NC(=O)[C@H](CO)NC(=O)[C@H](CC(C)C)NC(=O)[C@H](CC(=O)O)NC(=O)[C@H](CO)NC(=O)[C@@H](NC(=O)[C@H](Cc1ccccc1)NC(=O)[C@@H](NC(=O)CNC(=O)[C@H](Cc1c[nH]cn1)NC(=O)C(C)(C)NC(=O)[C@@H](N)Cc1c[nH]cn1)[C@@H](C)O)[C@@H](C)O)C(=O)N[C@@H](CCC(=O)O)C(=O)N[C@@H](CCC(=O)O)C(=O)N[C@@H](CCC(N)=O)C(=O)N[C@@H](CCCNC(=N)N)C(=O)N[C@@H](CCC(N)=O)C(=O)N[C@@H](CCCCN)C(=O)N[C@@H](CCC(=O)O)C(=O)N[C@@H](Cc1ccccc1)C(=O)N[C@H](C(=O)N[C@@H](CCC(=O)O)C(=O)N[C@@H](Cc1c[nH]c2ccccc12)C(=O)N[C@@H](CC(C)C)C(=O)N[C@@H](CCCCN)C(=O)N[C@@H](C)C(=O)NCC(=O)NCC(=O)N[C@@H](Cc1c[nH]cn1)C(=O)N1CCC[C@H]1C(=O)N[C@@H](CO)C(=O)NC(C)(C)C(=O)N[C@@H](CCCCN)C(=O)N1CCC[C@H]1C(=O)N1CCC[C@H]1C(=O)N1CCC[C@H]1C(=O)N[C@@H](CCCCN)C(N)=O)[C@@H](C)CC)C(=O)O)C(=O)O` [SEQ ID NO: 14, H-Aib-H-G-T-F-T-S-D-L-S-K-L-K[gGlu-gGlu-AEEA-Palm]-E-E-Q-R-Q-K-E-F-I-E-W-L-K-A-G-G-H-P-S-Aib-K-P-P-P-K-NH2] (H-H[Aib]HGTFTSDLSKLK([γGlu-γGlu-AEEA-Palmitoyl])EEQRQKEFIEWLKAGGHPS[Aib]KPPPK-NH2), in series [1], the “Delta Rh [nm] = Rh5 − Rh1” value was −0.1 nm, the “Rh1 [nm] c = 1 mg/ml” value was 3.0 nm and the “Rh5 [nm] c = 5 mg/ml” value worked out at 2.9 nm. The “Lag time before increase” value in series [2] was over 45 h. The “Chemical stability [relative purity loss 28 days 40° C.] (%) at pH 4.5” value in series [3] was found to be 8.1%.
Consider `CCCCCCCCCCCCCCCC(=O)NCCOCCOCC(=O)N[C@@H](CCC(=O)N[C@@H](CCC(=O)NCCCC[C@H](NC(=O)[C@H](CC(C)C)NC(=O)[C@H](CCCCN)NC(=O)[C@H](CO)NC(=O)[C@H](CC(C)C)NC(=O)[C@H](CC(=O)O)NC(=O)[C@H](CO)NC(=O)[C@@H](NC(=O)[C@H](Cc1ccccc1)NC(=O)[C@@H](NC(=O)CNC(=O)[C@H](Cc1c[nH]cn1)NC(=O)C(C)(C)NC(=O)[C@@H](N)Cc1c[nH]cn1)[C@@H](C)O)[C@@H](C)O)C(=O)N[C@@H](CCC(=O)O)C(=O)N[C@@H](CCC(=O)O)C(=O)N[C@@H](CCC(N)=O)C(=O)N[C@@H](CCCNC(=N)N)C(=O)N[C@@H](CCC(N)=O)C(=O)N[C@@H](CCCCN)C(=O)N[C@@H](CCC(=O)O)C(=O)N[C@@H](Cc1ccccc1)C(=O)N[C@H](C(=O)N[C@@H](CCC(=O)O)C(=O)N[C@@H](Cc1c[nH]c2ccccc12)C(=O)N[C@@H](CC(C)C)C(=O)N[C@@H](CCCCN)C(=O)N[C@@H](C)C(=O)N[C@H](C)C(=O)NCC(=O)N[C@@H](Cc1c[nH]cn1)C(=O)N1CCC[C@H]1C(=O)N[C@@H](CO)C(=O)NC(C)(C)C(=O)N[C@@H](CCCCN)C(=O)N1CCC[C@H]1C(=O)N1CCC[C@H]1C(=O)N1CCC[C@H]1C(=O)N[C@@H](CCCCN)C(N)=O)[C@@H](C)CC)C(=O)O)C(=O)O` [SEQ ID NO: 15, H-Aib-H-G-T-F-T-S-D-L-S-K-L-K[gGlu-gGlu-AEEA-Palm]-E-E-Q-R-Q-K-E-F-1-E-W-L-K-A-dAla-G-H-P-S-Aib-K-P-P-P-K-NH2] (H-H[Aib]HGTFTSDLSKLK([γGlu-γGlu-AEEA-Palmitoyl])EEQRQKEFIEWLKA[dA]GHPS[Aib]KPPPK-NH2), for which, in series [1], the “Delta Rh [nm] = Rh5 − Rh1” value is given as −0.4 nm, the “Rh1 [nm] c = 1 mg/ml” value was determined as 3.0 nm and the “Rh5 [nm] c = 5 mg/ml” value is reported as 2.6 nm. In addition, the “Lag time before increase” value in series [2] was over 45 h. In series [3], the “Chemical stability [relative purity loss 28 days 40° C.] (%) at pH 4.5” value stood at 7.2%.
